# Data: patent US20240148821A1, “PHARMACEUTICAL USE OF CYCLIC PEPTIDE COMPOUND” (CHUGAI SEIYAKU KABUSHIKI KAISHA, priority 2021, published 2024)
# Numbered stars: 1 amine (or outer) side, 2 acyl side, 3 side chain; on linkers, the order of the positions; unused ones are H or OH. Bridge positions count the residues as written; N and C are the ends. Square brackets hold non-standard residues; d marks the D form. Peptide text beside a SMILES is read from it. * marks the point of attachment. hPhe(3-Cl-4-CF3) = N[C@@H](CCc1ccc(C(F)(F)F)c(Cl)c1)C(=O)O; hPhe(3-F,4-CF3) = N[C@@H](CCc1ccc(C(F)(F)F)c(F)c1)C(=O)O; hPhe(4-CF3) = N[C@@H](CCc1ccc(C(F)(F)F)cc1)C(=O)O; Pro(cis-4-Ph) = O=C(O)[C@@H]1C[C@H](c2ccccc2)CN1; NMePhe(4-Cl) = CN[C@@H](Cc1ccc(Cl)cc1)C(=O)O; NEtPhe(2-Cl) = CCN[C@@H](Cc1ccccc1Cl)C(=O)O; NMePhe(4-Me) = CN[C@@H](Cc1ccc(C)cc1)C(=O)O; NMedβ3hAla = C[C@H](CC(=O)[*:2])N(C)[*:1]; NMeGly(cPent) = CN[C@H](C(=O)O)C1CCCC1; NMe3Pal = CN[C@@H](Cc1cccnc1)C(=O)O; X78 = O=C(CN(CCc1cccnc1)[*:1])[*:2]; NMeCha = CN[C@@H](CC1CCCCC1)C(=O)O; X82 = O=C(CN(CCC1CNC1)[*:1])[*:2]; Hyp = O=C(O)[C@@H]1C[C@@H](O)CN1; NMeChg = CN[C@H](C(=O)O)C1CCCCC1; NMeI = CC[C@H](C)[C@H](NC)C(=O)O; NMeβAla = CN(CCC(=O)[*:2])[*:1]; NMeD = CN[C@@H](CC(=O)O)C(=O)O; NMeL = CN[C@@H](CC(C)C)C(=O)O; Chg = N[C@H](C(=O)O)C1CCCCC1; NMePra = C#CC[C@H](NC)C(=O)O; NMeV = CN[C@H](C(=O)O)C(C)C; d(β3hA) = C[C@@H](N)CC(=O)O; NMeA = CN[C@@H](C)C(=O)O; NMeAib = CNC(C)(C)C(=O)O; Piperidide = C1CCN(*)CC1; Pyrrolidide = C1CCN(*)C1; dNMeA = CN[C@H](C)C(=O)O; Ac5c = NC1(C(=O)O)CCCC1; Aze = O=C(O)[C@@H]1CCN1; Ethyl(2,2-F2) = FC(F)C*; Aib = CC(C)(N)C(=O)O; Sar = CNCC(=O)O
# Target: protein-protein interaction between Kras and SOS1 (biotin-tagged human Kras loaded with GDP, His-tagged human SOS1) (Homo sapiens (Human), UniProt P01116, G12D)
# Test: Protein-protein interaction inhibition between Kras and SOS1 (KrasG12D-SOS PPI) using AlphaScreen;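 note: kras produced in E. coli, Ni-coupled donor beads and streptavidin acceptor beads, excitation 680 nm with emission detected at 520–620 nm via singlet oxygen transfer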
# Assay type: biochemical
# Conditions: AlphaScreen; biotin-tagged human Kras loaded with GDP, His-tagged human SOS1; read-out: KRAS G12D-SOS PPI IC50
row,Compound,IC50
1,CC[C@H](C)[C@@H]1NC(=O)[C@H](CC(C)C)N(C)C(=O)C[C@@H](C)NC(=O)[C@H](CC(C)C)N(C)C(=O)C(C)(C)NC(=O)[C@H](CC(C)C)N(C)C(=O)[C@H](CCc2ccc(C(F)(F)F)cc2)NC(=O)CN(C)C(=O)[C@H](CC2CCCCC2)N(C)C(=O)CN(C)C(=O)CN(C)C1=O [Compound 839] (cyclo([Aib][NMeL][d(β3hA)][NMeL]I[Sar][Sar][NMeCha][Sar][hPhe(4-CF3)][NMeL])),0.22 µM
2,"CC[C@H](C)[C@@H]1NC(=O)[C@H](CC(C)C)N(C)C(=O)C[C@@H](C(=O)N2CCCCC2)N(C)C(=O)[C@H](CC(C)C)NC(=O)C(C)(C)N(C)C(=O)[C@H](COc2ccccc2)NC(=O)[C@H](Cc2cccc(I)c2)NC(=O)CN(C)C(=O)[C@H](Cc2ccc(C)cc2)N(C)C(=O)[C@@H]2CCN2C(=O)CN(C)C1=O [Compound 2114, (6S,9S,13S,16S,22S,25S,31S,34S)-25-[(3-iodophenyl)methyl]-9,16-diisobutyl-4,10,14,19,19,20,29,32-octamethyl-6-[(1S)-1-methylpropyl]-22-(phenoxymethyl)-13-(piperidine-1-carbonyl)-31-(p-tolylmethyl)-1,4,7,10,14,17,20,23,26,29,32-undecazabicyclo[32.2.0]hexatriacontane-2,5,8,11,15,18,21,24,27,30,33-undecone]",0.11 µM
3,CC[C@H](C)[C@@H]1NC(=O)[C@H](CC(C)C)N(C)C(=O)C[C@@H](C(=O)N2CCCCC2)N(C)C(=O)[C@H](C2CCCCC2)N(C)C(=O)C2(CCCC2)NC(=O)[C@@H]2CCCN2C(=O)[C@H](CCc2ccc(C(F)(F)F)c(Cl)c2)NC(=O)CN(C)C(=O)[C@H](Cc2ccc(C)cc2)N(C)C(=O)[C@@H]2CCN2C(=O)[C@H](C)N(C)C1=O [Compound 1795] ([NMeL]I[NMeA][Aze][NMePhe(4-Me)][Sar][hPhe(3-Cl-4-CF3)]P[Ac5c][NMeChg][NMeD]-Piperidide; lactam N-11),0.00099 µM
4,C#CC[C@H]1C(=O)N[C@@H]([C@@H](C)CC)C(=O)N(C)[C@@H](C)C(=O)N2CC[C@H]2C(=O)N(C)[C@@H](CC2CCCCC2)C(=O)N(C)CC(=O)N[C@@H](CCc2ccc(C(F)(F)F)c(Cl)c2)C(=O)N2CCC[C@H]2C(=O)NC2(CCCC2)C(=O)N(C)[C@@H](C(C)C)C(=O)N(C)[C@H](C(=O)N2CCCCC2)CC(=O)N1C [Compound 559] ([NMePra]I[NMeA][Aze][NMeCha][Sar][hPhe(3-Cl-4-CF3)]P[Ac5c][NMeV][NMeD]-Piperidide; lactam N-11),0.0017 µM
5,"CC[C@H](C)[C@@H]1NC(=O)[C@H](CC(C)C)N(C)C(=O)CCN(C)C(=O)[C@H](CC(C)C)NC(=O)C(C)(C)N(C)C(=O)[C@H](CC(C)C)NC(=O)[C@H](CCc2ccc(C(F)(F)F)c(F)c2)NC(=O)CN(C)C(=O)[C@H](CC2CCCCC2)N(C)C(=O)CN(C)C(=O)CN(C)C1=O [Compound 832] (cyclo(I[Sar][Sar][NMeCha][Sar][hPhe(3-F,4-CF3)]L[NMeAib]L[NMeβAla][NMeL]))",0.12 µM
6,CC[C@H](C)[C@@H]1NC(=O)[C@H](C)N(C)C(=O)C[C@@H](C)N(C)C(=O)[C@H](CC(C)C)NC(=O)C(C)(C)N(C)C(=O)[C@H](CC(C)C)NC(=O)[C@H](CCc2ccc(C(F)(F)F)c(Cl)c2)NC(=O)[C@@H](C)N(C)C(=O)[C@H](Cc2ccc(C)cc2)N(C)C(=O)CN(C)C(=O)CN(C)C1=O [Compound 1381] (cyclo(I[Sar][Sar][NMePhe(4-Me)][dNMeA][hPhe(3-Cl-4-CF3)]L[NMeAib]L[NMedβ3hAla][NMeA])),0.15 µM
7,CC[C@H](C)[C@@H]1NC(=O)[C@H](CC(C)C)N(C)C(=O)C[C@@H](C(=O)N2CCCCC2)N(C)C(=O)[C@H](C2CCCCC2)N(C)C(=O)C2(CCCC2)NC(=O)CN(CCc2cccnc2)C(=O)[C@H](CCc2ccc(C(F)(F)F)c(Cl)c2)NC(=O)CN(C)C(=O)[C@H](CC2CCCCC2)N(C)C(=O)CN(C)C(=O)CN(C)C1=O [Compound 2032] ([NMeL]I[Sar][Sar][NMeCha][Sar][hPhe(3-Cl-4-CF3)][X78][Ac5c][NMeChg][NMeD]-Piperidide; lactam N-11 (inferred); C-terminus assumed),0.0012 µM
8,CC[C@H](C)[C@@H]1NC(=O)[C@H](C(C)C)N(C)C(=O)C[C@@H](C)NC(=O)[C@H](C(C)C)N(C)C(=O)C2(CCCC2)NC(=O)[C@H](CC(C)C)N(C)C(=O)[C@H](CCc2ccc(C(F)(F)F)c(Cl)c2)NC(=O)CN(C)C(=O)[C@H](Cc2ccc(Cl)cc2)N(C)C(=O)CN(C)C(=O)CN(C)C1=O [Compound 1069] (cyclo([Ac5c][NMeV][d(β3hA)][NMeV]I[Sar][Sar][NMePhe(4-Cl)][Sar][hPhe(3-Cl-4-CF3)][NMeL])),0.017 µM
9,CC[C@H](C)[C@@H]1NC(=O)[C@H](C(C)C)N(C)C(=O)C[C@@H](C)NC(=O)[C@H](CC(C)C)N(C)C(=O)C(C)(C)NC(=O)[C@H](CC(C)C)N(C)C(=O)[C@H](CCc2ccc(C(F)(F)F)c(Cl)c2)NC(=O)CN(C)C(=O)[C@H](Cc2ccc(Cl)cc2)N(C)C(=O)CN(C)C(=O)CN(C)C1=O [Compound 740] (cyclo([Aib][NMeL][d(β3hA)][NMeV]I[Sar][Sar][NMePhe(4-Cl)][Sar][hPhe(3-Cl-4-CF3)][NMeL])),0.011 µM
10,"CC[C@H](C)[C@@H]1NC(=O)[C@H](CC(C)C)N(C)C(=O)C[C@@H](C)NC(=O)[C@H](C(C)C)N(C)C(=O)C2(CCCC2)NC(=O)[C@@H]2CCCN2C(=O)[C@H](CCc2ccc(C(F)(F)F)c(F)c2)NC(=O)CN(C)C(=O)[C@H](CC2CCCCC2)N(C)C(=O)[C@@H]2CCN2C(=O)[C@H](C)N(C)C1=O [Compound 952] (cyclo([Ac5c][NMeV][d(β3hA)][NMeL]I[NMeA][Aze][NMeCha][Sar][hPhe(3-F,4-CF3)]P))",0.12 µM
11,"CC[C@H](C)[C@@H]1NC(=O)[C@H](CC(C)C)N(C)C(=O)C[C@@H](C(=O)N2CCCCC2)N(C)C(=O)[C@H](C2CCCCC2)N(C)C(=O)C2(CCCC2)NC(=O)[C@@H]2C[C@@H](OCC(F)F)CN2C(=O)[C@H](CCc2ccc(C(F)(F)F)c(Cl)c2)NC(=O)CN(C)C(=O)[C@H](CC2CCCCC2)N(C)C(=O)CN(C)C(=O)CN(C)C1=O [Compound 2119] ([NMeL]I[Sar][Sar][NMeCha][Sar][hPhe(3-Cl-4-CF3)][Hyp](Ethyl(2,2-F2))[Ac5c][NMeChg][NMeD]-Piperidide; lactam N-11)",0.00039 µM
12,CC[C@H](C)[C@@H]1NC(=O)[C@H](CC(C)C)N(C)C(=O)C[C@@H](C(=O)N2CCCC2)N(C)C(=O)[C@H](C2CCCCC2)N(C)C(=O)C2(CCCC2)NC(=O)[C@H](Cc2cccnc2)N(C)C(=O)[C@H](CCc2ccc(C(F)(F)F)c(Cl)c2)NC(=O)CN(C)C(=O)[C@H](CC2CCCCC2)N(C)C(=O)CN(C)C(=O)CN(C)C1=O [Compound 1693] ([NMeL]I[Sar][Sar][NMeCha][Sar][hPhe(3-Cl-4-CF3)][NMe3Pal][Ac5c][NMeChg][NMeD]-Pyrrolidide; lactam N-11),0.0017 µM
13,"CC[C@H](C)[C@@H]1NC(=O)[C@H](CC(C)C)N(C)C(=O)C[C@@H](C(=O)N(C)C)N(C)C(=O)[C@H](C2CCCC2)N(C)C(=O)C2(CCCC2)NC(=O)CN(CCC2CNC2)C(=O)[C@H](CCc2ccc(C(F)(F)F)c(F)c2)NC(=O)CN(C)C(=O)[C@H](CC2CCCCC2)N(C)C(=O)[C@@H]2CCN2C(=O)[C@H](C)N(C)C1=O [Compound 2182, (3S,6S,9S,13S,16S,25S,31S,34S)-23-[2-(azetidin-3-yl)ethyl]-31-(cyclohexylmethyl)-16-cyclopentyl-25-[2-[3-fluoro-4-(trifluoromethyl)phenyl]ethyl]-9-isobutyl-N,N,3,4,10,14,17,29,32-nonamethyl-6-[(1S)-1-methylpropyl]-2,5,8,11,15,18,21,24,27,30,33-undecaoxo-spiro[1,4,7,10,14,17,20,23,26,29,32-undecazabicyclo[32.2.0]hexatriacontane-19,1′-cyclopentane]-13-carboxamide] ([NMeL]I[NMeA][Aze][NMeCha][Sar][hPhe(3-F,4-CF3)][X82][Ac5c][NMeGly(cPent)][NMeD]-NMe2; lactam N-11)",0.0036 µM
14,CC(C)C[C@H]1C(=O)N[C@@H](C2CCCCC2)C(=O)N(C)[C@@H](C)C(=O)N2CC[C@H]2C(=O)N(C)[C@@H](CC2CCCCC2)C(=O)N(C)CC(=O)N[C@@H](CCc2ccc(C(F)(F)F)c(Cl)c2)C(=O)N2CCC[C@H]2C(=O)NC2(CCCC2)C(=O)N(C)[C@@H](C(C)C)C(=O)N(C)[C@H](C(=O)N2CCCCC2)CC(=O)N1C [Compound 642] ([NMeL][Chg][NMeA][Aze][NMeCha][Sar][hPhe(3-Cl-4-CF3)]P[Ac5c][NMeV][NMeD]-Piperidide; lactam N-11),0.054 µM
15,CC[C@H](C)[C@@H]1NC(=O)[C@H](CC(C)C)N(C)C(=O)C[C@@H](C(=O)N(C)C)N(C)C(=O)[C@H]([C@@H](C)CC)N(C)C(=O)C2(CCCC2)NC(=O)[C@H](Cc2ccccc2Cl)N(CC)C(=O)[C@H](CCc2ccc(C(F)(F)F)c(Cl)c2)NC(=O)CN(C)C(=O)[C@H](Cc2ccc(C)cc2)N(C)C(=O)[C@@H]2CCN2C(=O)[C@H](C)N(C)C1=O [Compound 2165] ([NMeL]I[NMeA][Aze][NMePhe(4-Me)][Sar][hPhe(3-Cl-4-CF3)][NEtPhe(2-Cl)][Ac5c][NMeI][NMeD]-NMe2; lactam N-11),0.22 µM
16,CC[C@H](C)[C@@H]1NC(=O)[C@H](CC(C)C)N(C)C(=O)C[C@@H](C)NC(=O)[C@H](CC(C)C)N(C)C(=O)C(C)(C)NC(=O)[C@H](CC(C)C)N(C)C(=O)[C@H](CCc2ccc(C(F)(F)F)cc2)NC(=O)CN(C)C(=O)[C@H](Cc2ccc(Cl)cc2)N(C)C(=O)CN(C)C(=O)CN(C)C1=O [Compound 261] (cyclo([Aib][NMeL][d(β3hA)][NMeL]I[Sar][Sar][NMePhe(4-Cl)][Sar][hPhe(4-CF3)][NMeL])),0.052 µM
17,CC[C@H](C)[C@@H]1NC(=O)[C@H](CC(C)C)N(C)C(=O)C[C@@H](C(=O)N2CCCCC2)N(C)C(=O)[C@H](C2CCCCC2)N(C)C(=O)C2(CCCC2)NC(=O)[C@@H]2C[C@H](c3ccccc3)CN2C(=O)[C@H](CCc2ccc(C(F)(F)F)c(Cl)c2)NC(=O)CN(C)C(=O)[C@H](CC2CCCCC2)N(C)C(=O)CN(C)C(=O)CN(C)C1=O [Compound 428] ([NMeL]I[Sar][Sar][NMeCha][Sar][hPhe(3-Cl-4-CF3)][Pro(cis-4-Ph)][Ac5c][NMeChg][NMeD]-Piperidide; lactam N-11),0.0091 µM
